Test system: A375Pβ6 cells
Conditions: A375Pβ6, αvβ6 positive; 72 h treatment, MTT assay; ±SD, n=3

COc1cc2c(cc1OCCCCCOc1cc3c(cc1OC)C(=O)N1C=C(C)C[C@H]1C=N3)N=C[C@@H]1CC(C)=CN1C2=O [SG3199, reference compound]
IC50: 0.11 ± 0.08 nM

Source: article PMC7053198 (Theranostics, 2020)
